Assay: molar heat capacity at constant volume
Details: Fluid (supercritical or subcritical phases), Vacuum adiabatic calorimetry

CCC(C)O (stereo not given) [butan-2-ol]
Details	molar heat capacity at constant volume [J/K/mol]
527.47 K, Mass density=142.27 kg/m3	538.57
527.66 K, Mass density=142.27 kg/m3	541.75
527.84 K, Mass density=142.27 kg/m3	547.68
527.89 K, Mass density=142.27 kg/m3	524.19
527.91 K, Mass density=142.27 kg/m3	561.92
527.93 K, Mass density=142.27 kg/m3	439.91
527.95 K, Mass density=142.27 kg/m3	388.84
527.97 K, Mass density=142.27 kg/m3	388.92
527.99 K, Mass density=142.27 kg/m3	375.57
528.01 K, Mass density=142.27 kg/m3	386.62
528.02 K, Mass density=142.27 kg/m3	388.84
528.02 K, Mass density=403.55 kg/m3	319.46
528.21 K, Mass density=142.27 kg/m3	337.77
528.21 K, Mass density=403.55 kg/m3	320.21
528.39 K, Mass density=403.55 kg/m3	321.69
528.58 K, Mass density=403.55 kg/m3	321.69
528.76 K, Mass density=403.55 kg/m3	324.65
528.95 K, Mass density=142.27 kg/m3	295.37
528.95 K, Mass density=403.55 kg/m3	322.43
529.13 K, Mass density=142.27 kg/m3	274.69
529.13 K, Mass density=403.55 kg/m3	326.14
529.31 K, Mass density=142.27 kg/m3	275.36
529.31 K, Mass density=403.55 kg/m3	306.86
529.5 K, Mass density=403.55 kg/m3	232
529.68 K, Mass density=403.55 kg/m3	229.78
529.87 K, Mass density=403.55 kg/m3	227.55
530.05 K, Mass density=142.27 kg/m3	274.1
530.23 K, Mass density=142.27 kg/m3	282.55
530.23 K, Mass density=403.55 kg/m3	227.55
530.42 K, Mass density=142.27 kg/m3	282.33
530.42 K, Mass density=403.55 kg/m3	228.29
530.6 K, Mass density=403.55 kg/m3	232
530.79 K, Mass density=184.89 kg/m3	471.41
530.79 K, Mass density=403.55 kg/m3	229.78
530.97 K, Mass density=184.89 kg/m3	466.37
530.97 K, Mass density=403.55 kg/m3	232
531.15 K, Mass density=184.89 kg/m3	474.16
531.15 K, Mass density=347.06 kg/m3	363.2
531.15 K, Mass density=403.55 kg/m3	229.78
531.34 K, Mass density=184.89 kg/m3	489.72
531.34 K, Mass density=347.06 kg/m3	356.52
531.34 K, Mass density=403.55 kg/m3	233.48
531.52 K, Mass density=184.89 kg/m3	492.32
531.52 K, Mass density=347.06 kg/m3	358.01
531.52 K, Mass density=403.55 kg/m3	233.48
531.7 K, Mass density=184.89 kg/m3	488.16
531.7 K, Mass density=284.93 kg/m3	365.79
531.7 K, Mass density=301.19 kg/m3	380.99
531.7 K, Mass density=347.06 kg/m3	360.23
531.7 K, Mass density=403.55 kg/m3	237.19
531.89 K, Mass density=184.89 kg/m3	479.34
531.89 K, Mass density=284.93 kg/m3	377.35
531.89 K, Mass density=301.19 kg/m3	380.99
531.89 K, Mass density=347.06 kg/m3	364.68
531.89 K, Mass density=403.55 kg/m3	239.41
532.07 K, Mass density=184.89 kg/m3	478.97
532.07 K, Mass density=245.67 kg/m3	434.57
532.07 K, Mass density=284.93 kg/m3	387.43
532.07 K, Mass density=347.06 kg/m3	363.94
532.07 K, Mass density=403.55 kg/m3	238.67
532.26 K, Mass density=184.89 kg/m3	490.54
532.26 K, Mass density=245.67 kg/m3	439.02
532.26 K, Mass density=286.65 kg/m3	404.56
532.26 K, Mass density=301.19 kg/m3	388.4
532.26 K, Mass density=347.06 kg/m3	364.68
532.26 K, Mass density=403.55 kg/m3	236.45
532.44 K, Mass density=245.67 kg/m3	433.61
532.44 K, Mass density=286.65 kg/m3	410.63
532.44 K, Mass density=301.19 kg/m3	386.17
532.44 K, Mass density=347.06 kg/m3	361.71
532.62 K, Mass density=184.89 kg/m3	485.64
532.62 K, Mass density=198.25 kg/m3	477.94
532.62 K, Mass density=245.67 kg/m3	439.84
532.62 K, Mass density=286.65 kg/m3	417.75
532.62 K, Mass density=301.19 kg/m3	388.4
532.62 K, Mass density=347.06 kg/m3	361.71
532.62 K, Mass density=403.55 kg/m3	232
532.81 K, Mass density=184.89 kg/m3	501.51
532.81 K, Mass density=198.25 kg/m3	476.53
532.81 K, Mass density=245.67 kg/m3	441.76
532.81 K, Mass density=286.65 kg/m3	423.83
532.81 K, Mass density=301.19 kg/m3	385.43
532.81 K, Mass density=347.06 kg/m3	364.68
532.81 K, Mass density=403.55 kg/m3	231.26
532.81 K, Mass density=474.07 kg/m3	191.23
532.99 K, Mass density=184.89 kg/m3	501.8
532.99 K, Mass density=198.25 kg/m3	476.23
532.99 K, Mass density=245.67 kg/m3	435.17
532.99 K, Mass density=286.65 kg/m3	421.6
532.99 K, Mass density=301.19 kg/m3	390.62
532.99 K, Mass density=347.06 kg/m3	370.61
532.99 K, Mass density=474.07 kg/m3	191.23
533.17 K, Mass density=184.89 kg/m3	502.32
533.17 K, Mass density=198.25 kg/m3	482.38
533.17 K, Mass density=245.67 kg/m3	443.91
533.17 K, Mass density=284.93 kg/m3	404.04
533.17 K, Mass density=286.65 kg/m3	417.75
533.17 K, Mass density=301.19 kg/m3	393.59
533.17 K, Mass density=347.06 kg/m3	373.57
533.17 K, Mass density=474.07 kg/m3	197.16
533.36 K, Mass density=184.89 kg/m3	511.07
533.36 K, Mass density=198.25 kg/m3	490.83
533.36 K, Mass density=245.67 kg/m3	447.32
533.36 K, Mass density=284.93 kg/m3	410.71
533.36 K, Mass density=286.65 kg/m3	416.27

Reference: the NIST ThermoML archive (doi:10.1016/j.tca.2013.08.031)
